Consider 31 compounds from patent US9730937B2, “RAF kinase modulator compounds and methods of use thereof” (AMBIT BIOSCIENCES CORPORATION, priority 2008, dated 2017).

The subject of this assay is panel of 290 distinct kinases (321 in the larger panel), excluding mutant variants.
The mark [1] stands for this setting: asterisk: panel of 321 distinct kinases.
Setting [2] is: no asterisk: panel of 290 distinct kinases.

The structures appear in SMILES notation. Where two headings read alike, the source gives them in different places.

Take `COCCOc1cc2ncnc(Sc3cccc(NC(=O)Nc4cc(C(F)(F)F)nn4-c4ccc(F)cc4)c3)c2cc1OC` [Ex 242, 1-[1-(4-fluorophenyl)-3-(trifluoromethyl)-1H-pyrazol-5-yl]-3-{3-[6-methoxy-7-(2-methoxyethoxy)quinazolin-4-ylthio]phenyl}urea]: the S35 result under setting [1] is “C* (0.20 < C ≦ 0.40)”. On to `COCCOc1cc2ncnc(Sc3cccc(NC(=O)Nc4cc(C(F)(F)F)nn4-c4ccc(C)cc4)c3)c2cc1OC` [Ex 243, 1-{3-[6-methoxy-7-(2-methoxyethoxy)quinazolin-4-ylthio]phenyl}-3-[1-p-tolyl-3-(trifluoromethyl)-1H-pyrazol-5-yl]urea], for which the S35 result under setting [1] is reported as “C* (0.20 < C ≦ 0.40)”. In the case of `COCCOc1cc2ncnc(Sc3cccc(NC(=O)Nc4cc(C(F)(F)F)n(-c5ccccc5)n4)c3)c2cc1OC` [Ex 244, 1-{3-[6-methoxy-7-(2-methoxyethoxy)quinazolin-4-ylthio]phenyl}-3-[1-phenyl-5-(trifluoromethyl)-1H-pyrazol-3-yl]urea], the S35 entry under setting [1] is reported as “C* (0.20 < C ≦ 0.40)”. Still for that read-out and setting: then `COc1cc2ncnc(Sc3cccc(NC(=O)Nc4cc(C(C)(C)F)no4)c3)c2cc1OCCCN1CCS(=O)(=O)CC1` [Ex 245, 1-(3-(2-fluoropropan-2-yl)isoxazol-5-yl)-3-(3-(7-methoxy-6-(4,4-dioxo-3-thiomorpholinopropoxy)quinazolin-4-ylthio)phenyl)urea], with “C* (0.20 < C ≦ 0.40)”.

For `COc1cc2ncnc(Sc3cccc(NC(=O)Nc4ccc(OC)c(C(F)(F)F)c4)c3)c2cc1OCCCN1CCS(=O)(=O)CC1` [Ex 246, 1-(4-methoxy-3-(trifluoromethyl)phenyl)-3-(3-(7-methoxy-6-(3-(4,4-dioxothiomorpholino)propoxy)quinazolin-4-ylthio)phenyl)urea], under setting [1], the S35 entry is “C* (0.20 < C ≦ 0.40)”. As to `COCCOc1cc2ncnc(Sc3cccc(NC(=O)Nc4cc(C(C)(C)C)no4)c3)c2cc1OCCOC` [Ex 247, 1-(3-(6,7-bis(2-methoxyethoxy)quinazolin-4-ylthio)phenyl)-3-(3-tert-butylisoxazol-5-yl)urea], under setting [2], the S35 entry is on record as “C (0.20 < C ≦ 0.40)”. As for `COc1cc2c(Sc3cccc(NC(=O)Nc4ccc(OC)c(C(F)(F)F)c4)c3)ncnc2cc1OCCN1CCOCC1` [Ex 249, 1-(4-methoxy-3-(trifluoromethyl)phenyl)-3-(3-(6-methoxy-7-(2-morpholinoethoxy)quinazolin-4-ylthio)phenyl)urea], under setting [1], the S35 entry is reported as “C* (0.20 < C ≦ 0.40)”. Regarding `COc1cc2c(Oc3cccc(NC(=O)Nc4ccc(OC)c(C(F)(F)F)c4)c3)ncnc2cc1OCCN1CCOCC1` [Ex 250, 1-(4-methoxy-3-(trifluoromethyl)phenyl)-3-(3-(6-methoxy-7-(2-morpholinoethoxy)quinazolin-4-yloxy)phenyl)urea], the S35 entry under setting [1] was “C* (0.20 < C ≦ 0.40)”. Regarding `COc1cc2c(Oc3cccc(NC(=O)Nc4cc(C(C)(C)F)no4)c3)ncnc2cc1OCCN1CCOCC1` [Ex 251, 1-(3-(2-fluoropropan-2-yl)isoxazol-5-yl)-3-(3-(6-methoxy-7-(2-morpholinoethoxy)quinazolin-4-yloxy)phenyl)urea], the S35 result under setting [1] is given as “C* (0.20 < C ≦ 0.40)”. For the compound `COc1cc2ncnc(Oc3cccc(NC(=O)Nc4cnn(C(C)(C)C)c4)c3)c2cc1OC` [Ex 252, 1-(1-tert-butyl-1H-pyrazol-4-yl)-3-(3-(6,7-dimethoxyquinazolin-4-yloxy)phenyl)urea], the S35 entry under setting [2] is given as “C (0.20 < C ≦ 0.40)”. `COc1cc2ncnc([S+]([O-])c3cccc(NC(=O)Nc4cc(C(C)(C)C)on4)c3)c2cc1OC` (stereo not shown) [Ex 253, 1-(5-tert-butylisoxazol-3-yl)-3-(3-(6,7-dimethoxyquinazolin-4-ylsulfinyl)phenyl)urea]: the S35 result under setting [2] is on record as “C (0.20 < C ≦ 0.40)”. For `COc1cc2ncnc(Oc3cccc(NC(=O)Nc4cc(C(F)(F)F)no4)c3)c2cc1OC` [Ex 254, 1-(3-(6,7-dimethoxyquinazolin-4-yloxy)phenyl)-3-(3-(trifluoromethyl)isoxazol-5-yl)urea], under setting [1], the S35 entry is “C* (0.20 < C ≦ 0.40)”. Regarding `COc1cc2c(Oc3cccc(NC(=O)Nc4cc(C(C)(C)C)on4)c3)ncnc2cc1OCCCN1CCS(=O)(=O)CC1` [Ex 256, 1-(5-tert-butyl-isoxazol-3-yl)-3-(3-{7-[3-(1,1-dioxo-thiomorpholin-4-yl)-propoxy]-6-methoxy-quinazolin-4-yloxy}-phenyl)-urea], the S35 entry under setting [2] is listed as “D (D > 0.40)”. As for `COc1cc2c(Oc3cccc(NC(=O)Nc4cc(C(C)(C)F)no4)c3)ncnc2cc1O` [Ex 257, 1-(3-(2-fluoropropan-2-yl)isoxazol-5-yl)-3-(3-(7-hydroxy-6-methoxyquinazolin-4-yloxy)phenyl)urea], the S35 result under setting [2] is “C (0.20 < C ≦ 0.40)”. For the compound `COc1cc2ncnc(Oc3cccc(NC(=O)Nc4cc(C(C)(C)F)no4)c3)c2cc1O` [Ex 258, 1-(3-(2-fluoropropan-2-yl)isoxazol-5-yl)-3-(3-(6-hydroxy-7-methoxyquinazolin-4-yloxy)phenyl)urea], the S35 entry under setting [2] was “C (0.20 < C ≦ 0.40)”. Same read-out and setting: as for `COc1cc2ncnc(Oc3cccc(NC(=O)Nc4cc(C(C)(C)C(F)(F)F)on4)c3)c2cc1OC` [Ex 259, 1-(3-(6,7-dimethoxyquinazolin-4-yloxy)phenyl)-3-(5-(1,1,1-trifluoro-2-methylpropan-2-yl)isoxazol-3-yl)urea], the entry is “C (0.20 < C ≦ 0.40)”; as for `CCOc1cc2c(Oc3cccc(NC(=O)Nc4cc(C(C)(C)C(F)(F)F)on4)c3)ncnc2cc1OC` [Ex 260, 1-(3-(6-ethoxy-7-methoxyquinazolin-4-yloxy)phenyl)-3-(5-(1,1,1-trifluoro-2-methylpropan-2-yl)isoxazol-3-yl)urea], “C (0.20 < C ≦ 0.40)”. Consider `CCOc1cc2c(Sc3cccc(NC(=O)Nc4cc(C(C)(C)C(F)(F)F)on4)c3)ncnc2cc1OC` [Ex 262, 1-(3-(6-ethoxy-7-methoxyquinazolin-4-ylthio)phenyl)-3-(5-(1,1,1-trifluoro-2-methylpropan-2-yl)isoxazol-3-yl)urea], for which the S35 result under setting [2] was “C (0.20 < C ≦ 0.40)”.

As to `COc1cc2c(Oc3cccc(NC(=O)Nc4cc(C(C)(C)C(F)(F)F)on4)c3)ncnc2cc1O` [Ex 263, 1-(3-(7-hydroxy-6-methoxyquinazolin-4-yloxy)phenyl)-3-(5-(1,1,1-trifluoro-2-methylpropan-2-yl)isoxazol-3-yl)urea], the S35 result under setting [2] was “C (0.20 < C ≦ 0.40)”. In the case of `COc1cc2ncnc(Oc3cccc(NC(=O)Nc4cc(C(C)(C)C(F)(F)F)on4)c3)c2cc1O` [Ex 264, 1-(3-(6-hydroxy-7-methoxyquinazolin-4-yloxy)phenyl)-3-(5-(1,1,1-trifluoro-2-methylpropan-2-yl)isoxazol-3-yl)urea], the S35 result under setting [2] is recorded as “C (0.20 < C ≦ 0.40)”. Take `COc1cc2ncnc(Oc3cccc(NC(=O)Nc4cc(C(C)(C)C(F)(F)F)on4)c3F)c2cc1OC` [Ex 265, 1-(3-(6,7-dimethoxyquinazolin-4-yloxy)-2-fluorophenyl)-3-(5-(1,1,1-trifluoro-2-methylpropan-2-yl)isoxazol-3-yl)urea]: the S35 result under setting [2] was “C (0.20 < C ≦ 0.40)”.

On to `COc1cc2ncnc(Oc3cc(NC(=O)Nc4cc(C(C)(C)C(F)(F)F)on4)ccc3F)c2cc1OC` [Ex 266, 1-(3-(6,7-dimethoxyquinazolin-4-yloxy)-4-fluorophenyl)-3-(5-(1,1,1-trifluoro-2-methylpropan-2-yl)isoxazol-3-yl)urea], for which the S35 entry under setting [2] is listed as “C (0.20 < C ≦ 0.40)”. In the case of `COc1cc2ncnc(Oc3cccc(NC(=O)Nc4cc(C(C)(C)C(F)(F)F)no4)c3)c2cc1OC` [Ex 267, 1-(3-(6,7-dimethoxyquinazolin-4-yloxy)phenyl)-3-(3-(1,1,1-trifluoro-2-methylpropan-2-yl)isoxazol-5-yl)urea], the S35 result under setting [2] was “C (0.20 < C ≦ 0.40)”. Still for that read-out and setting: as for `COc1cc2ncnc(Sc3cccc(NC(=O)Nc4cc(C(C)(C)C(F)(F)F)no4)c3)c2cc1OC` [Ex 268, 1-(3-(6,7-dimethoxyquinazolin-4-ylthio)phenyl)-3-(3-(1,1,1-trifluoro-2-methylpropan-2-yl)isoxazol-5-yl)urea], the entry is “C (0.20 < C ≦ 0.40)”; as for `COc1cc2ncnc(Oc3cc(NC(=O)Nc4cc(C(C)(C)F)no4)c(F)cc3F)c2cc1OC` [Ex 269, 1-(5-(6,7-dimethoxyquinazolin-4-yloxy)-2,4-difluorophenyl)-3-(3-(2-fluoropropan-2-yl)isoxazol-5-yl)urea], “D (D > 0.40)”; as for `COc1cc2ncnc(Oc3cc(NC(=O)Nc4cc(C(C)(C)C)on4)c(F)cc3F)c2cc1OC` [Ex 270, 1-(5-tert-butylisoxazol-3-yl)-3-(5-(6,7-dimethoxyquinazolin-4-yloxy)-2,4-difluorophenyl)urea], “D (D > 0.40)”.

With `COc1cc2ncnc(Oc3cc(NC(=O)Nc4cc(C(F)(F)F)nn4-c4ccccc4)c(F)cc3F)c2cc1OC` [Ex 271, 1-(5-(6,7-dimethoxyquinazolin-4-yloxy)-2,4-difluorophenyl)-3-(1-phenyl-3-(trifluoromethyl)-1H-pyrazol-5-yl)urea], the S35 entry under setting [2] was “D (D > 0.40)”. For `COc1cc2ncnc(Oc3cc(NC(=O)Nc4cc(C(C)(C)C)nn4-c4ccc(C)cc4)c(F)cc3F)c2cc1OC` [Ex 272, 1-(3-tert-butyl-1-p-tolyl-1H-pyrazol-5-yl)-3-(5-(6,7-dimethoxyquinazolin-4-yloxy)-2,4-difluorophenyl)urea], the S35 entry under setting [2] was “D (D > 0.40)”. The same measure, in the same setting: as for `COc1cc2ncnc(Oc3cc(NC(=O)Nc4cc(C(C)(C)C)nn4-c4ccccc4)c(F)cc3F)c2cc1OC` [Ex 273, 1-(3-tert-butyl-1-phenyl-1H-pyrazol-5-yl)-3-(5-(6,7-dimethoxyquinazolin-4-yloxy)-2,4-difluorophenyl)urea], the entry is “D (D > 0.40)”; as for `COc1cc2ncnc(Oc3cccc(NC(=O)Nc4cc(C(C)(C)C)nn4-c4ccc(C)cc4)c3)c2cc1OC` [Ex 274, 1-(3-tert-butyl-1-p-tolyl-1H-pyrazol-5-yl)-3-(3-(6,7-dimethoxyquinazolin-4-yloxy)phenyl)urea], “D (D > 0.40)”.

For `COc1cc2ncnc(Sc3cccc(NC(=O)Nc4cc(C(C)(C)C)nn4-c4ccc(C)cc4)c3)c2cc1OC` [Ex 275, 1-(3-tert-butyl-1-p-tolyl-1H-pyrazol-5-yl)-3-(3-(6,7-dimethoxyquinazolin-4-ylthio)phenyl)urea], the S35 entry under setting [2] is given as “D (D > 0.40)”.
